Data published in US9969674B2, “MMF-derivatives of ethyleneglycols” (RATIOPHARM GMBH, priority 2014, dated 2018).
Where “and” joins values, the source holds several entries; their conditions need not be identical. Equal entries are not always repeated. Structures can show the parent of a compound that is named as a salt.

What was measured:
[1] = Kinetics of MMF-release during incubation in intestinal fluid of the minipig; assay type: in vitro ADME, Göttingen SPF minipig; conditions: for release of the second equivalent of MMF / release kinetics of the first equivalent of MMF: diluted minipig small intestinal fluid pH 6.8, 37° C., compared with DMF (FIG. 1); for release kinetics of the first equivalent of MMF: time 0-30 min
Description: Example 7: Investigation and Comparison of the Kinetics of MMF-Release of the Different Compounds of the Present Invention and DMF During Incubation in Intestinal Fluid of the Minipig
Intestinal tissue/fluid and enterocyte samples were taken from a 10 month old, female Göttingen SPF minipig. The body weight was 21 kg. The minipig was fasted for approximately 28 hours before sampling of intestinal fluid/tissues and enterocytes. On the day of sampling, the minipig was weighed and anaesthetised by an intramuscular injection in the neck or in the left hind leg (about 0.3 ml per kg body weight) of a mixture of Zoletil 50 Vet., Virbac, France (125 mg tiletamine and 125 mg zolazepam), Rompun Vet., Bayer, Germany (20 mg xylazine/ml, 6.5 ml), Ketaminol Vet., Veterinaria AG, Switzerland (100 mg ketamine/ml, 1.5 ml) and Methadon DAK, Nycomed Danmark, Denmark (10 mg methadon/ml, 2.5 ml). The animal was killed by exsanguination before sampling of intestinal fluid. An intestinal segment was ligated at both ends before removal. The isolated tissue was placed in isotonic saline and opened by a longitudinal cut for sampling of intestinal fluid.
The intestinal tissue from each segment was transferred into a Centrifuge Tube, immersed in 10 ml 50 mM phosphate buffer, pH 6.8 and frozen at −70° C.
• Instrument: Acquity UPLC system coupled with a TQ detector (triple quadruple mass spectrometer) UPLC Method: Column: Phenomenex Kinetex C18, 100 A, 2.6 μm (150×4.6 mm) flow: 0.4 ml/min split: appr. 100 μl/min to MS Temperature: 30° C. solvent system (isocratic): • Solvent A 25% water with 0.1% acetic acid • Solvent B 75% methanol with 0.1% acetic acid stoptime: 6 min autosampler temperature: 8° C. injection volume: 4 μl retention time: MN/IF: 4.3 min • MEF: 4.7 min Mass Spectrometry software: Masslynx 4.1 detection mode: electrospray/negative ions (ESP−) capillary voltage: 2.3 kV source temperature: 100° C. desolvation temperature: 450° C. cone voltage: 18 V desolvation gas: N2 650 L/h cone gas: N2, 20 L/h collision gas: argon, appr. 3.3*10^−3 mbar collision energy: 11 eV MRM [m/z]: 128.94>85.03 Monomethylfumarate dwell: 200 msec • 142.99>99.06 Monoethylfumarate (ISTD) dwell: 200 msec 7.2.1.2 Stock and Calibration Solutions
Stock (SS), working (WS) and calibration solutions of the analyte monomethyl fumarate (MMF) and the internal standard (ISTD) […] (MEF) were prepared as described below. • SSMMF: In a 10 ml volumetric flask, 6.5 mg MMF (Batch: MKRJ0642V/Aldrich) were dissolved in methanol and made up to volume (c=650 μg/ml) • SSISTD: In a 100 ml volumetric flask, 10 mg MEF (Batch: STBC5219V/Aldrich) were dissolved in methanol and made up to volume (c=100 μg/ml) • WSISTD: 100 μl SSISTD were transferred into a 10 ml volumetric flask and made up to volume with acetonitrile (c=1,000 ng/ml);
Calibration solutions were prepared by serial dilution of SSMMF; diluted small intestinal fluid (diluted by 1/20 v/v with 50 mM KH2PO4, pH 6.8; (dil IF) was used as matrix. The dilution scheme is given below:
50 μl sample (calibration solution or sample of an incubation experiment with MMF prodrugs) was mixed with 50 μl WSISTD, 20 μl formic acid and 100 μl acetonitrile. This mixture was vortexed for 15 sec and centrifuged (13,000 rpm, 3 min). Thereafter, 4 μl of the supernatant were subjected to LC-MS analysis.
Stock solutions were prepared in DMSO or, for one compound, in DMSO with 10% (v/v) water. Concentrations in stock solutions were […] for compounds with one, two and three molar MMF equivalents.
In a HPLC glass vial, 8 μl of stock solution were mixed with 792 μl dil IF and the mixture was stirred (250 rpm) in a water bath (T=37° C.).
Immediately after mixing as well as at t=15 min, 30 min, 60 min, 90 min and 120 min, 50 μl were withdrawn and prepared for LC-MS analysis as described in chapter. 2.1.3. […]

Caco-2 monolayers = assay: Membrane permeability in Caco-2 monolayers
Description: (§1) The membrane permeability was investigated in Caco-2 monolayers. DMF was investigated in a separate experiment for comparison.
(§2) Based on the assumption that in vivo, the intact molecules will be pre-systemically metabolized, the permeability test was performed only in the apical→basolateral direction. The test concentration in the apical medium was 250 μM. […] Sampling time points were 15, 45 and 90 min.

[2] = test system: MOG35-55-induced experimental autoimmune encephalomyelitis (EAE); assay: MOG35-55-induced experimental autoimmune encephalomyelitis (EAE) in C57BL/6 mice; assay type: in vivo; conditions: for body weight: prophylactic oral treatment from day 1, observation day 1-13 (FIG. 2); for development of clinical symptoms (clinical score): prophylactic oral treatment from day 1, observation day 1-13, 11.54 mM dose formulation, 10 ml/kg (FIG. 3)
Excerpt: Assessment and comparison of the efficacy of compounds of the invention and DMF (reference) in MOG35-55-induced experimental autoimmune encephalomyelitis (EAE) in C57BL/6 mice: • Test system: male C57BL/6 mice, 12 weeks old; 10 animals per treatment group; • Induction of EAE: Day −1—subcutaneous injection of MOG35-55, suspended in complete Freund's adjuvans and intraperitoneal injection of pertussis toxin. • Day 3—intraperitoneal injection of pertussis toxin. • Treatment: Dimethylfumarate and test substances or vehicle only were administered via oral route. Test substances were dissolved or suspended in 0.5% hydroxyethylcellulose (dissolved in 50 mM potassium dihydrogenphosphate, pH 5.0). Drug concentration in dose formulations: 11.54 mM; • Dose volume: 10 ml/kg body weight; • Start of treatment: Day 1 • Observations (clinical Observations were recorded daily between day 1 and 13. score and body weight): • Clinical score: grade 0-10; 0 (=no impairments), 1 (normal movement; limp tail: proximal ⅔ of the tail is limp and droopy), 2 (normal movement; whole tail is limp; 3 (wobbly walk; absent righting reflex), 4 (gait ataxia), 5 (mild paraparesis), 6 (moderate paraparesis), 7 (severe paraparesis or paraplegia), 8 (tetraparesis), 9 (moribund), 10 (death).

in vitro = conditions: human, Caco-2
Description: as §1, §2

[3] = In vivo pharmacokinetics of MMF after oral administration in NMRI mice; conditions: female, mouse, 65.3 mg/kg
Description: The pharmacokinetics of MMF after administration of the compound of Example 1 and DMF for comparison was investigated in female NMRI mice (3 animals per group). The test compound was dissolved in DMSO/PEG300 (20/80) and administered p.o. (gavage) at a dose volume of 10 ml/kg. DMF was given at a dose of 45 mg/kg. The test compound was dosed at a MMF-equivalent dose, i.e. 65.3 mg/kg. Blood samples were taken at 0.25, 0.5, 1.0, 2.0, 4.0, 6.0 and 8.0 h after drug administration.
Pharmacokinetic parameters, derived by non-compartmental analysis for test compound (Example 1): […]

Compound	release of the second equivalent of MMF [1]	release kinetics of the first equivalent of MMF [1]	body weight [2]	development of clinical symptoms (clinical score) [2]	permeability category compared to the reference molecules (Caco-2 monolayers; Caco-2)	other results
COC(=O)/C=C/C(=O)OCCOCCOCCOC(=O)/C=C/C(=O)OC [Example 2, (E)-But-2-enedioic acid 2-{2-[2-((E)-3-methoxycarbonyl-acryloyl-oxy)-ethoxy]-ethoxy}-ethyl ester methyl ester]	released more slowly	essentially identical to that of DMF				
COC(=O)/C=C/C(=O)OC(C)OC(=O)/C=C/C(=O)OC [(E)-But-2-enedioic acid 1-((E)-3-methoxycarbonyl-acryloyloxy)-ethyl ester methyl ester, reference compound]						release kinetics of MMF ([1]; incubation in intestinal fluid of the minipig, compared with DMF (FIG. 8)): considerable faster than that of DMF
C[C@]12CC[C@H]3[C@@H](CCC4=CC(=O)CC[C@@]43C)[C@@H]1CC[C@@H]2O [Testosterone, testosterone]						Recovery [%] mean ± s.d. (Caco-2 monolayers; direction a-b): 67.3 ± 1.2% and 62.5 ± 2.1%; Recovery [%] mean ± s.d. (Caco-2 monolayers; direction b-a): 94.9 ± 0.9% and 76.1 ± 4.5%
COC(=O)/C=C/C(=O)OC [DMF, Dimethyl fumarate]			remained stable	protected from the development of clinical symptoms	moderate permeability	Recovery [%] mean ± s.d. (Caco-2 monolayers; Caco-2): 11.6 ± 1.0%; Papp × 10^−6 [cm/sec] mean ± s.d. (Caco-2 monolayers; human, Caco-2, 250 μM): 1.8 ± 0.2 10^−6 cm/sec
COC(=O)/C=C/C(=O)OCCOCCOCCOCCOC(=O)/C=C/C(=O)OC [Example 1, (E)-But-2-enedioic acid 2-(2-{2-[2-((E)-3-methoxycarbonyl-acryloyl-oxy)-ethoxy]-ethoxy}-ethoxy)-ethyl ester methyl ester]	released more slowly	essentially identical to that of DMF	remained stable	protected from the development of clinical symptoms	moderate permeability	Papp A→B at 250 μM (in vitro): 1 ± 0.1 ×10⁻⁶ cm/s; recovery at 90 min, 250 µM (in vitro): 17.1%; AUC(0-inf) [3]: 5990 ng·h/mL
COC(=O)/C=C/C(=O)OCCOCCOC(=O)/C=C/C(=O)OC [Example 3, (E)-But-2-enedioic acid 2-[2-((E)-3-methoxycarbonyl-acryloyloxy)-ethoxy]-ethyl ester methyl ester]	released more slowly	essentially identical to that of DMF				
